Values joined by “and” are separate entries in the source; they are usually repeats but may differ in a detail not shown here. Identical values can stand only once.
Experiments:
Kir6.2-GFP + SUR1 [1] = molecular target: T1, Kir6.2-GFP + SUR1 (Homo sapiens, UniProt Q14654); assay: Current inhibition in excised inside-out patches (patch-clamp fluorometry); type: biochemical; design: full length, fully ANAP-labelled Kir6.2 protein was produced and successfully trafficked to the membrane in the presence of SUR1; expressed in transfected cells; host or cells: HEK-293T; conditions: excised inside-out patches, Mg2+-free, Hill fit
T1 sequence (Q14654 whole entry): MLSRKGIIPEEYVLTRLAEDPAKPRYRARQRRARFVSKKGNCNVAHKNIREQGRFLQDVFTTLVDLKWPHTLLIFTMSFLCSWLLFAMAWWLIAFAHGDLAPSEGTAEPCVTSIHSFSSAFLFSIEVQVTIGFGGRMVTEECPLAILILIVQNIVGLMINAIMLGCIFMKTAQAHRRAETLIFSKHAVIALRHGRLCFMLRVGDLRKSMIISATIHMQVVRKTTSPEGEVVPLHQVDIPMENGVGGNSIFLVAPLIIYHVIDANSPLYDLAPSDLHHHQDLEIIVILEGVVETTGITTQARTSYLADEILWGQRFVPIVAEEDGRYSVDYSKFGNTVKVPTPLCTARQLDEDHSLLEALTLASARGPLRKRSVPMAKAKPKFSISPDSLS
T1 sequence (Q09428 whole entry partner): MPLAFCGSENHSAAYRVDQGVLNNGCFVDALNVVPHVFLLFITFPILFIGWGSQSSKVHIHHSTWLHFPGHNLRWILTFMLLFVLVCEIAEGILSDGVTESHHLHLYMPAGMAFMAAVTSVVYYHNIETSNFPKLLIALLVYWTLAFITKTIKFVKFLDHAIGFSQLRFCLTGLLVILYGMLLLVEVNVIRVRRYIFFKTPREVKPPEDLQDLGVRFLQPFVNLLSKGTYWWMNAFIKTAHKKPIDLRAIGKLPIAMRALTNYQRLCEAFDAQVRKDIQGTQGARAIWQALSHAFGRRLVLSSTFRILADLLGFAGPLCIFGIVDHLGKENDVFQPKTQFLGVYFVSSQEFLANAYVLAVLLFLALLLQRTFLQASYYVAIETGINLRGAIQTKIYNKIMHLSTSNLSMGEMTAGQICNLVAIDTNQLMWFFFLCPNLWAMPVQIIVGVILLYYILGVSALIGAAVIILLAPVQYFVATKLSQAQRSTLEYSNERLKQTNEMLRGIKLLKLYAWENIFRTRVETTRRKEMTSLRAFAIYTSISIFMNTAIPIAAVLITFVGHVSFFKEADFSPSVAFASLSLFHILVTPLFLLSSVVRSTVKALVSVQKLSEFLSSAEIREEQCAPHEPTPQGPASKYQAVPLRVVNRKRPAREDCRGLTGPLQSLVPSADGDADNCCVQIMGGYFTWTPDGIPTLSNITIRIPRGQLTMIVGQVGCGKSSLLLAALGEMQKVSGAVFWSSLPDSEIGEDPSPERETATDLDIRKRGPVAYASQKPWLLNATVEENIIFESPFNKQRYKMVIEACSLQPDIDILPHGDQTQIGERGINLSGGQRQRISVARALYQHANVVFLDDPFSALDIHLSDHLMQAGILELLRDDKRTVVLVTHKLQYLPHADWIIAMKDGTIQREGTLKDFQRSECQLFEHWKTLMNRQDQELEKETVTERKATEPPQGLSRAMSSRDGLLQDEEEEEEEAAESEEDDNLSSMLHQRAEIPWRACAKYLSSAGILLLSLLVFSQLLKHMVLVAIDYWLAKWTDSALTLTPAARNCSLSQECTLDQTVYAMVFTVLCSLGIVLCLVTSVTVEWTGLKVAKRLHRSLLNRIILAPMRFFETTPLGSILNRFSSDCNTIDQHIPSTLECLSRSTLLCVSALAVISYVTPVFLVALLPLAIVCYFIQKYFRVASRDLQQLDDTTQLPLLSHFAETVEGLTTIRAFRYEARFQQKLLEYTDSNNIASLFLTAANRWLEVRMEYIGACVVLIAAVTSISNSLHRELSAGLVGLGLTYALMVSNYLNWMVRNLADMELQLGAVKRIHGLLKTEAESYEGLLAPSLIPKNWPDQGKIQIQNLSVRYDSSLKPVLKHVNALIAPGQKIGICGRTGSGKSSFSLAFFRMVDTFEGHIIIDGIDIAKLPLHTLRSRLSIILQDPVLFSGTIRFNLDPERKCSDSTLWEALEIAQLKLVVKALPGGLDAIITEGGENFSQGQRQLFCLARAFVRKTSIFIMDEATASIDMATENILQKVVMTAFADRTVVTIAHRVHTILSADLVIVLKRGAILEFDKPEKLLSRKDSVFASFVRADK
Experimental: Currents were measured from patches from cells expressing KATP that were excised in the absence of Mg^2+. Under such conditions, nucleotides can bind to both sites on SUR1, but no activation occurs, allowing inhibitory currents to be measured in isolation ([Gribble et al., 1998]; [Ueda et al., 1999]; [Puljung et al., 2019]).
(§1) Currents were measured as described above.

Kir6.2-GFP + SUR1 [2] = molecular target: T1, Kir6.2-GFP + SUR1; assay: ANAP fluorescence quenching in excised patches (patch-clamp fluorometry); type: binding; design: full length, fully ANAP-labelled Kir6.2 protein was produced and successfully trafficked to the membrane in the presence of SUR1; expressed in transfected cells; host or cells: HEK-293T; conditions: excised patches (PCF), Hill fit
Experimental: as §1
ANAP bleaching was corrected as for the unroofed binding experiments with Equation 1 (Figure 2—figure supplement 3A). Due to the lower signal-to-noise ratio for PCF compared to the unroofed membranes, we performed experiments from both high-to-low and low-to-high TNP-ATP concentrations to minimise artifacts from our bleaching corrections.

Kir6.2*-GFP + SUR-K205A = molecular target: T2, Kir6.2*-GFP + SUR-K205A (Homo sapiens, UniProt Q14654); assay: Current inhibition in excised inside-out patches (patch-clamp fluorometry); type: biochemical; conditions: Mg2+-free, Hill fit
T2 construct: ANAP labelling is specific and only full-length Kir6.2 is expressed at the cell membrane; expressed in transfected cells; host or cells: HEK-293T
T2 sequence (Q14654 whole entry, stated change not applied): as the sequence (Q14654 whole entry) above
T2 sequence (Q09428 whole entry K205A partner): as the sequence (Q09428 whole entry partner) above, with K205A counted along it
Description: (§2) We introduced a charge neutralization (alanine, K205A) and a charge reversal (glutamate, K205E) mutation at this position and measured simultaneous nucleotide binding and current inhibition with PCF (Figure 4B,C,D). The binding and inhibition curves for TNP-ATP almost perfectly overlaid for the SUR1-K205A mutant (Figure 4C). The same was also true for SUR1-K205E (Figure 4D). Data were fit with the MWC-type model as before. […] This was reflected by a decrease in the estimated KA for TNP-ATP, which correlated with the degree of conservation of the mutation, that is we observed a larger effect for the charge reversal compared to the charge neutralization mutation (Figure 4E). However, in addition to direct effects of K205 on nucleotide binding, we also observed a shift in D for both mutations (Figure 4E).
as §1

Kir6.2*-GFP + SUR-K205E = molecular target: T3, Kir6.2*-GFP + SUR-K205E (Homo sapiens, UniProt Q14654); assay: as above; type: biochemical; conditions: Mg2+-free, Hill fit
T3 construct: ANAP labelling is specific and only full-length Kir6.2 is expressed at the cell membrane; expressed in transfected cells; host or cells: HEK-293T
T3 sequence (Q14654 whole entry, stated change not applied): as the sequence (Q14654 whole entry) above
T3 sequence (Q09428 whole entry K205E partner): as the sequence (Q09428 whole entry partner) above, with K205E counted along it
Description: as §2, §1

Kir6.2*,G334D-GFP + SUR1 = molecular target: T4, Kir6.2*,G334D-GFP + SUR1 (Homo sapiens, UniProt Q14654, G334D); assay: FRET (ANAP quenching) nucleotide binding in unroofed membranes; conditions: Hill fit
T4 construct: ANAP labelling is specific and only full-length Kir6.2 is expressed at the cell membrane; expressed in transfected cells; host or cells: HEK-293T
T4 sequence (Q14654 whole entry G334D): as the sequence (Q14654 whole entry) above, with G334D counted along it
T4 sequence (Q09428 whole entry partner): as the sequence (Q09428 whole entry partner) above
Description: To measure nucleotide binding, cells transfected with Kir6.2*-GFP + SUR1 were briefly sonicated, leaving behind unroofed plasma membrane fragments ([Heuser, 2000]; [Zagotta et al., 2016]; [Puljung et al., 2019]) containing ANAP-labelled KATP channels with the intracellular nucleotide-binding sites exposed to the bath solution. The sample was excited with a 385 nm LED and emitted fluorescence from the membrane fragments was passed through a spectrometer, allowing us to separate ANAP, GFP, and TNP-ATP fluorescence by peak wavelength (Figure 1E,F). As expected from FRET, increasing the concentration of TNP-ATP caused a decrement in the ANAP peak at 472 nm and a concomitant increase in the TNP-ATP peak at 561 nm (Figure 1F). We used the quenching of the ANAP peak as a direct measure of TNP-ATP binding as this signal was specific to KATP. In contrast, the peak TNP-ATP fluorescence may include contributions from both specific and non-specific nucleotide binding, as well as direct excitation of TNP-ATP in solution by the 385 nm excitation light. Due to the sharp cut-off of the GFP emission spectrum at shorter wavelengths, our measurements of peak ANAP fluorescence were unaffected by the presence of the GFP tag on Kir6.2. […]
Epifluorescence imaging and spectroscopy were performed using a Nikon Eclipse TE2000-U microscope with a 60x water immersion objective (Plan Apo VC, NA = 1.2, Nikon; Kingston upon Thames, UK) or a 100x oil immersion objective (Nikon, Apo TIRF, NA = 1.49). […] Fluorescence spectra were collected by exciting ANAP as above but using a 400 nm long-pass emission filter (ThorLabs), then passing emitted light through an IsoPlane 160 Spectrometer (Princeton Instruments; Trenton, NJ) with a 300 grooves mm^-1 grating. […]
Unroofed membranes were prepared as described previously ([Heuser, 2000]; [Zagotta et al., 2016]; [Puljung et al., 2019]). […] Unroofed membrane fragments were nearly invisible in bright-field images and identified by their GFP and ANAP fluorescence. […]

## Nc1ncnc2c1ncn2[C@@H]1O[C@H](COP(=O)(O)OP(=O)(O)OP(=O)(O)O)[C@H]2OC3(O[C@H]21)C([N+](=O)[O-])=CC(=[N+]([O-])[O-])C=C3[N+](=O)[O-] (stereo partly drawn) [TNP-ATP, trinitrophenyl-ATP]
Kir6.2-GFP + SUR1 [1]; IC50 current inhibition
  IC50: 6.2 µM and 6.23 µM and 6.17 µM
Kir6.2-GFP + SUR1 [1]
  h (Hill coefficient) current inhibition: 0.92
Kir6.2-GFP + SUR1 [2]
  h (Hill coefficient) fluorescence quenching: 0.87
Kir6.2-GFP + SUR1 [2]; fraction
  Emax: 100%
Kir6.2-GFP + SUR1 [2]; n = 9
  EC50: 77.7 µM and 77.6 µM
Kir6.2*-GFP + SUR-K205A
  h (Hill coefficient) current inhibition: 0.75
Kir6.2*-GFP + SUR-K205A; n = 9
  IC50: 166 µM
Kir6.2*-GFP + SUR-K205E
  h (Hill coefficient) current inhibition: 0.79
Kir6.2*-GFP + SUR-K205E; n = 9
  IC50: 631 µM
Kir6.2*,G334D-GFP + SUR1
  h (Hill coefficient) fluorescence quenching: 2.63
Kir6.2*,G334D-GFP + SUR1; fraction, read-out: Emax fluorescence quenching
  Emax: 8%
Kir6.2*,G334D-GFP + SUR1; n = 9, read-out: EC50 fluorescence quenching
  EC50: 493 µM

Reference: PMC7004565, “Nucleotide inhibition of the pancreatic ATP-sensitive K^+ channel explored with patch-clamp fluorometry” (eLife, 2020)
